Data as given in patent US20240067617A1 (Albireo AB, priority 2022, published 2024).

Tests used:
[1] = Bidirectional permeability assay (Caco-2 cells); format: in vitro ADME; details: human, 10 μM in FaSSIF buffer, 120 minutes at 37° C.; for Papp A→B at 120 min, 10 µM: absorptive direction (A2B); for Papp B→A at 120 min, 10 µM: secretory direction (B2A)
Method: Bidirectional Permeability Assay (Caco-2 Cells)
Caco-2 cells (Evotec) were seeded at a density of 70,000 cells/well in Millicell© 24-well cell culture insert plates and maintained in an incubator (37° C., 5% CO2, 95% RH) for 21 days with media change on alternate days.
Stock solutions (10 mM) of the test compounds, atenolol (low permeability marker), propranolol (high permeability marker) and digoxin (substrate for P-gp transport pathway) were prepared in dimethylsulfoxide (DMSO). An intermediate stock solution (1 mM) was prepared by diluting 10 μL of 10 mM master stock solution with 90 μL of neat DMSO. A working stock solution (10 μM) was prepared by diluting 50 μL of 1 mM with 4950 μL of FaSSIF buffer. Post addition of compounds to the FaSSIF, samples were subjected to sonication for 2 hours, and centrifuged at 4000 RPM for 30 minutes at 37° C. The 4 mL of resultant supernatant was directly used in the assay. The final DMSO concentration in the transport experiments was 1%.
On the day of assay, Caco-2 monolayers were washed twice with transport buffer (HBSS, pH 7.4) and pre-incubated for 30 min (37° C., 5% CO2, 95% RH) in an incubator. The electrical resistance of the monolayers was measured with a Millicell®-ERS system. Monolayers with trans-epithelial electrical resistance (TEER) values greater than 350 ohm·cm^2 were selected for the assay.
The assay was conducted in absorptive direction (A2B) and secretory (B2A) directions. Transport experiments were initiated by addition of transport assay buffer (FaSSIF buffer prepared in HBSS) consisting of compounds to the donor compartment (apical chamber A-B; basolateral chamber B-A) in duplicate (n=2) wells. Drug free HBSS buffer (pH 7.4) containing 1% bovine serum albumin (BSA) was introduced to the receiver (A-B-basolateral; B-A-Apical) compartments. The volumes of apical and basolateral compartments were 0.4 and 0.8 mL, respectively. After adding dosing solution, plates were incubated in an incubator for 120 minutes at 37° C. After 120 minutes, donor and receiver samples were collected and matrix matched (1:1, 30 μL study sample+30 μL blank buffer) with the opposite buffer. Dosing samples matrix matched (1:1, 30 μL study sample+30 μL blank buffer) with the opposite buffer. Samples were processed by adding acetonitrile containing internal standard (60 μL study sample+200 μL acetonitrile containing internal standard—Tolbutamide, 500 ng/mL). Samples were vortexed and centrifuged at 4000 rpm for 10 minutes. The obtained supernatant (100 μL) was diluted with 100 μL of water and transferred to fresh 96 well plates. The concentration of compounds in the samples was analyzed by liquid chromatography tandem mass spectrometry (LC-MS/MS) method using discovery grade bio-analytical method, as applicable.
The mean apparent permeability (Papp,×10^−6 cm/sec) of the test compounds, atenolol, propranolol and digoxin were calculated as follows:
where dq/dt=rate of transport (rate of transport of compound in the receiver compartment), C0=initial concentration in the donor compartment, A=surface area of the effective filter membrane.

hLBAT = molecular target: T1, hLBAT (Homo sapiens, UniProt Q14973); test: LBAT (h/m) assay: 3H-taurocholic acid uptake in human LBAT-overexpressing cells; format: cell-based; details: 0.3 μM 3H-taurocholic acid + 7.5 μM cold taurocholic acid, 20 minutes at 37° C.
T1 construct: expressed in transfected cells; kept under Geneticin selection
T1 sequence (Q14973 1-349): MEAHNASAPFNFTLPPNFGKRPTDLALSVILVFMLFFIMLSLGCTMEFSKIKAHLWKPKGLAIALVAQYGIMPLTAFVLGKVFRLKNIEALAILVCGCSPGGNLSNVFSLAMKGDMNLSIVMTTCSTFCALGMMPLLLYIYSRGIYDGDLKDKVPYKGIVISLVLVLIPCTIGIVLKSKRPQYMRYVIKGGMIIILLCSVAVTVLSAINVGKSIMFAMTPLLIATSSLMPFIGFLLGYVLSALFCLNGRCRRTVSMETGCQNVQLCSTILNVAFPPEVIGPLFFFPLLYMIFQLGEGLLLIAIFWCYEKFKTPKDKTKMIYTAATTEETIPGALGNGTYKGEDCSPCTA
In short: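 Human or mouse LBAT-overexpressing cells given 10-point inhibitor series with 0.3 μM 3H-taurocholic acid plus cold taurocholic acid (7.5 μM human, 25 μM mouse), 0.2% DMSO, for 20 min at 37° C. Stopped on ice, washed with 1 mM unlabelled taurocholic acid; uptake measured by scintillation counting.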

Papp A→B at 120 min, 10 µM [1] | Papp B→A at 120 min, 10 µM [1] | IC50 (hLBAT) | Compound
29.3 ×10⁻⁶ cm/s | 25.3 ×10⁻⁶ cm/s | 6 µM | CCCCC1(C)CN(c2ccccc2)c2cc(SC)c(CSCC(=O)O)cc2S(=O)(=O)C1 (single isomer, unassigned) [5, enantiomer 1]
24.3 ×10⁻⁶ cm/s | 21.3 ×10⁻⁶ cm/s | 5.05 µM | CCCCC1(CC)CN(c2ccc(F)cc2)c2cc(SC)c(CSCC(=O)O)cc2S(=O)(=O)C1 (single isomer, unassigned) [7, enantiomer 1]
7.5 ×10⁻⁶ cm/s | 9.3 ×10⁻⁶ cm/s | 2.02 µM | CCCCC1(CC)CN(c2ccccc2)c2cc(SC)c(CSCC(=O)O)cc2S(=O)(=O)C1 (single isomer, unassigned) [2, enantiomer 1]
